The source of these data is ChEMBL document CHEMBL1148788 (J Med Chem, 2007).

Usually pKi stands for the Ki on a negative log10 scale, so that one unit is a factor of ten. Broadly, the pIC50 is the IC50 on a negative log10 scale, so that one unit is a factor of ten.

Test [1] has as its target Neuronal acetylcholine receptor; alpha4/beta2 (Rattus norvegicus, UniProt P09483+P12390). Description: Displacement of [3H]epibatidine from rat recombinant alpha-4-beta-2 nAChR in HEK293 cell line. The format is cell-based. The note with it: for pKi: hek293; for Ki: read-out: Ki. In general terms: Displacement assays read how much labelled ligand stays bound in the presence of the test substance.

In test [2] the target is T1, Neuronal acetylcholine receptor; alpha3/beta4 (Rattus norvegicus, UniProt P04757+P12392). Kind of test: Displacement of [3H]epibatidine from recombinant rat alpha-3-beta-4 nAChr in HEK293 cell line. The format is cell-based. As to conditions: for pKi: hek293.
For test [3], the target named is Neuronal acetylcholine receptor; alpha4/beta4 (Rattus norvegicus, UniProt P09483+P12392). Kind of test: Displacement of [3H]epibatidine from recombinant rat alpha-4-beta-4 nAChr in HEK293 cell line. In kind it is cell-based. As to conditions: for pKi: hek293.
Test [4] concerns the target T2, Neuronal acetylcholine receptor subunit alpha-7 (Homo sapiens, UniProt P36544). Description: Displacement of [3H]methyllycaconitine from human alpha-7 in tsA201 cells coexpressed with 5HT3A receptor. The format is cell-based.
Test [5] concerns the target T2, Neuronal acetylcholine receptor subunit alpha-7. Kind of test: Displacement of [3H]methyllycaconitine from alpha7 nAChR in tsA201 cells co-expressed with Ric3. The format is cell-based.
In test [6] the target is T3, 5-hydroxytryptamine receptor 3A (Homo sapiens, UniProt P46098).
T3 sequence (P46098 whole entry): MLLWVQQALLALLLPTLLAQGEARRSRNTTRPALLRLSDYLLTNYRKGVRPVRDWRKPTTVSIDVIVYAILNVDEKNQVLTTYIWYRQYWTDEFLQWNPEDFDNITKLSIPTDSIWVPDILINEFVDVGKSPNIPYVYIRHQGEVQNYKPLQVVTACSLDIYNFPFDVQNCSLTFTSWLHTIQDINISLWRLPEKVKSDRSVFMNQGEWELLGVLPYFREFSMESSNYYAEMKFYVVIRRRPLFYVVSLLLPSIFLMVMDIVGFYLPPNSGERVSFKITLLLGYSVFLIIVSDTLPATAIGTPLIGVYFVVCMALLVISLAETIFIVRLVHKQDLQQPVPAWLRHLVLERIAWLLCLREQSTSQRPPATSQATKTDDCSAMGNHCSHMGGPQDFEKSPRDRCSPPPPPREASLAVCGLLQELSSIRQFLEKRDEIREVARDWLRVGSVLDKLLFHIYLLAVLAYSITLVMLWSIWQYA
Description: Displacement of [3H]GR65630 from human 5HT3A receptor in HEK293 cells. The note with it: for pKi: hek293. In kind it is cell-based.

The target in test [7] is T2, Neuronal acetylcholine receptor subunit alpha-7. Description: Antagonist activity at human alpha-7 nAChR in tsA201 cells coexpressed with Ric3 by FMP assay. In kind it is functional, cell-based.
Test [8] addresses T1, Neuronal acetylcholine receptor; alpha3/beta4. Kind of test: Antagonist activity at rat alpha3beta4 nAChR expressed in HEK293 cells by FMP assay. The note with it: for pIC50: hek293. The format is functional, cell-based, Homo sapiens.
For test [9], the target named is T3, 5-hydroxytryptamine receptor 3A. Description: Antagonist activity at human 5HT3A receptor expressed in HEK293 cells by FMP assay. In kind it is functional, cell-based. The note with it: for IC50: read-out: IC50; for pIC50: hek293.
A further test in a line: cells. The format is functional, cell-based. As to conditions: Homo sapiens, HEK293.
The target of test [10] is T4, Glycine receptor subunit alpha-1 (Homo sapiens, UniProt P23415).
T4 sequence (P23415 whole entry): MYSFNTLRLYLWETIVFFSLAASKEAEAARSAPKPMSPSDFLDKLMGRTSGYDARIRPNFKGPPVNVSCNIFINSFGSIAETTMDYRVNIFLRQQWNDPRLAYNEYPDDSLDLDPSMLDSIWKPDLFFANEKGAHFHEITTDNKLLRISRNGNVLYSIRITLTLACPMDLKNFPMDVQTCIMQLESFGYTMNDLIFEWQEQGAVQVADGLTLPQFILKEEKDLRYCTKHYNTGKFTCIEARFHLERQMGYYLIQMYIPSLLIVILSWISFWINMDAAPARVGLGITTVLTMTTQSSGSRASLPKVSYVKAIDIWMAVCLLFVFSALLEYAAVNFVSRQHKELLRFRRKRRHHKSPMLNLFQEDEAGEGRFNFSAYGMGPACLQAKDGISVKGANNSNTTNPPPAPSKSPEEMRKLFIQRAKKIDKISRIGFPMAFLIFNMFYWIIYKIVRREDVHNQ
Description: Antagonist activity at human glycine alpha-1 receptor in HEK293 cells by FMP assay. The format is functional, cell-based. The note with it: for pIC50: hek293.

Bounds are passed on as bounds.

T2 sequence (P36544 whole entry): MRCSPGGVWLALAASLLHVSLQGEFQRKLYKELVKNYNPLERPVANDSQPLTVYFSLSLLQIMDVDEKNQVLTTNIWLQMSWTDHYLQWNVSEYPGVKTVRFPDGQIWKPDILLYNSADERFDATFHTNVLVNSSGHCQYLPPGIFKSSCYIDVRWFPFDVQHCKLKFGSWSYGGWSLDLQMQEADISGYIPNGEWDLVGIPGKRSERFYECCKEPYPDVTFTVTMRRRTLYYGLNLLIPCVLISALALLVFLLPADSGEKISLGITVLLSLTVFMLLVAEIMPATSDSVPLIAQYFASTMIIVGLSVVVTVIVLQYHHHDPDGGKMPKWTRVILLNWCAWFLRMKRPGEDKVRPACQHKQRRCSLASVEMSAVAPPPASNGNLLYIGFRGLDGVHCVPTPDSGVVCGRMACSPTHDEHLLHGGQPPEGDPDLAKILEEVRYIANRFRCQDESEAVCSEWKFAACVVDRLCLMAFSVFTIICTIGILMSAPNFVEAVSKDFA
Sequence of Neuronal acetylcholine receptor; alpha4/beta2 (P09483 whole entry): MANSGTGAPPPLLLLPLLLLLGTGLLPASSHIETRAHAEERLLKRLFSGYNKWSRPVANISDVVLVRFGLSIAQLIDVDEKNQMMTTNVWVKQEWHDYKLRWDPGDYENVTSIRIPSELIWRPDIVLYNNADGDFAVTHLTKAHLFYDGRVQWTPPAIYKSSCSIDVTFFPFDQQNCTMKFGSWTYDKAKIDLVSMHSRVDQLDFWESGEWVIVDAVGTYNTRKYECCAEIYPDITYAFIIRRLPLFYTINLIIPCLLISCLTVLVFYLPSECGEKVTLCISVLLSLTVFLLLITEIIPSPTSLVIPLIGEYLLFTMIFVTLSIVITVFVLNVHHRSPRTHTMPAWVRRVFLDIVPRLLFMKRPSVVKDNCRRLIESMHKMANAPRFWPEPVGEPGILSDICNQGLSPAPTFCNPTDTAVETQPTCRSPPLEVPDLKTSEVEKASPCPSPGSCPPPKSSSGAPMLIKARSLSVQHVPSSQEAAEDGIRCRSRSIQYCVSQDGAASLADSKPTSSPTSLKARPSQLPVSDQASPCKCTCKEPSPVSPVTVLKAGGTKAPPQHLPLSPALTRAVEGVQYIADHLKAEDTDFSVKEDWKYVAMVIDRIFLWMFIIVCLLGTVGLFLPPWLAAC
Sequence of Neuronal acetylcholine receptor; alpha4/beta2 (P12390 whole entry): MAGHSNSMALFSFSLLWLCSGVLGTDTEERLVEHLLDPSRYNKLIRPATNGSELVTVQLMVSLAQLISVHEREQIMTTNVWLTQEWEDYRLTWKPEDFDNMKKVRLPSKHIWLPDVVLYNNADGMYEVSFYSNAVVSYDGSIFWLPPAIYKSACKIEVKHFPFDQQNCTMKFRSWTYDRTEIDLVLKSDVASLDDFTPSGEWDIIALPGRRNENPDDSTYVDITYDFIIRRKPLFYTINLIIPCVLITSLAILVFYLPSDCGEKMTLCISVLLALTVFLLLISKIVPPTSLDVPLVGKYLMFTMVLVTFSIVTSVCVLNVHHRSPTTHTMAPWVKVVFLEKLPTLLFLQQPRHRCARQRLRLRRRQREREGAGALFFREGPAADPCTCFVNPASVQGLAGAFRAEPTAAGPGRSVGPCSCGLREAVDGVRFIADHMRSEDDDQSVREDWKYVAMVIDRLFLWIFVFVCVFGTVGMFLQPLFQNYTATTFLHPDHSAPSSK
Sequence of Neuronal acetylcholine receptor; alpha4/beta4 (P09483 whole entry): as the sequence (P09483 whole entry) above
Sequence of Neuronal acetylcholine receptor; alpha4/beta4 (P12392 whole entry): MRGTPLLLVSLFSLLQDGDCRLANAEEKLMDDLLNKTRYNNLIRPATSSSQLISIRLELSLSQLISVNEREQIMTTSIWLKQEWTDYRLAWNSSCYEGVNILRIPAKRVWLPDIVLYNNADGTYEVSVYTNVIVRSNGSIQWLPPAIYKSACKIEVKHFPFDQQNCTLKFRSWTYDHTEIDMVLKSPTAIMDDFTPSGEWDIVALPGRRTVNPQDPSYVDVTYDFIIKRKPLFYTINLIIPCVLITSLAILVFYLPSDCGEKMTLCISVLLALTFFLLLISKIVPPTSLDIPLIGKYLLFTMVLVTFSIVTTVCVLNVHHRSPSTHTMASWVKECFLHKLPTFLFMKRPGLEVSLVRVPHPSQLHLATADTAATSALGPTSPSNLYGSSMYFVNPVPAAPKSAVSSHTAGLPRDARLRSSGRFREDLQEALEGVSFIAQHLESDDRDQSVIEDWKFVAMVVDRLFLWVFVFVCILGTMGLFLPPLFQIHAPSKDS
T1 sequence (P04757 whole entry): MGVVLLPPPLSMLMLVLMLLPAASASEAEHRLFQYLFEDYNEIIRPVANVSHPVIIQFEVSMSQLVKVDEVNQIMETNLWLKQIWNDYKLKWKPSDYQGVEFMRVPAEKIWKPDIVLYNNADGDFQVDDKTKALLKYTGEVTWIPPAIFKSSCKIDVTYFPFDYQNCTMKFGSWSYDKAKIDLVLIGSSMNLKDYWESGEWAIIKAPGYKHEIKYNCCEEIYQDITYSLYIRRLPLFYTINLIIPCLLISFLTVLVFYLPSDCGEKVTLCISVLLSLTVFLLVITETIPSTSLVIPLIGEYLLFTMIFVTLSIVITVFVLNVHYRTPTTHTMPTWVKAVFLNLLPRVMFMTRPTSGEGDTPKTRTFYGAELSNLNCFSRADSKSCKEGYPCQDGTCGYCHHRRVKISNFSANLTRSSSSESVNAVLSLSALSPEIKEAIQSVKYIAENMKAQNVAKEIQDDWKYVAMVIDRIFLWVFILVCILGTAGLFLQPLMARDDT
T1 sequence (P12392 whole entry): as the sequence (P12392 whole entry) above

`C=CC[N+]12CC[C@@H]3[C@@H]4[C@@H]5[C@@H](OCC=C(C1)[C@@H]5C[C@@H]32)N1c2ccccc2[C@@]23CC[N+]5(CC=C)CC6=CCO[C@H]([C@@H]([C@H]12)[C@H]6C[C@@H]35)N4c1ccccc1.[Br-].[Br-]` (stereo not given in full): the pKi in test [1], in test [2] and in [3] was under 4 throughout. The Ki in test [1] was over 100 µM; in test [2], over 100 µM; in [3], over 100 µM; in test [4] (read-out: Ki), 66 nM; in [4] (read-out: pKi (converted)) it was 63.1 nM; in [5] (read-out: Ki) it was 30 nM. The Ki was 31.6 nM in [5] (read-out: pKi (converted)) and 100 µM in test [6]. The IC50 in test [7] (read-out: IC50) was 0.28 µM; in test [7] (read-out: pIC50 (converted)), 0.282 µM; in [8] (read-out: IC50) it was 100 µM; in [9] it was 100 µM; in “cells” (read-out: IC50) it was over 100 µM; in “cells” (read-out: pIC50 (converted)), over 100 µM. In [10], this molecule came in with an IC50 of over 100 µM. For the same molecule, the pIC50 in [10] was under 4.

With `C=CC[N+]12CC[C@@H]3[C@@H]4[C@@H]5[C@@H](OCC=C(C1)[C@@H]5C[C@@H]32)N1c2ccccc2[C@@]23CCN5CC6=CCO[C@H]([C@@H]([C@H]12)[C@H]6C[C@H]53)N4c1ccccc1.[Br-]` (stereo not given in full), the pKi in test [1], in test [2] and in test [3] was under 4 throughout. The Ki is over 100 µM in [1]; over 100 µM in test [2]; over 100 µM in [3]; 71 nM in test [4] (read-out: Ki); 55 nM in test [5] (read-out: Ki); 50.1 nM in [5] (read-out: pKi (converted)). Besides, the Ki in test [6] stood at 19 µM. The IC50 was 0.34 µM in test [7] (read-out: IC50); 0.339 µM in test [7] (read-out: pIC50 (converted)); 30 µM in test [8] (read-out: IC50); 30 µM in [9]; over 100 µM in the test “cells” (read-out: IC50); over 100 µM in “cells” (read-out: pIC50 (converted)). In test [10], this molecule registered an IC50 of over 100 µM. Moreover, the pIC50 in [10] is recorded as under 4.

Consider `C=CC[N+]12CC[C@@]34c5ccccc5N5/C=C6/[C@H]7C[C@H]8[C@@]9(CC[N@@+]8(CC=C)C/C7=C/CO)c7ccccc7N(/C=C(/[C@@H](C[C@@H]31)/C(=C\CO)C2)[C@H]54)[C@@H]69` (stereo not given in full), for which the pKi in test [1], in test [3] and in test [6] was under 4 throughout. In addition, the Ki was over 100 µM in test [1]; 3.2 µM in test [2]; over 100 µM in [3]; 2100 nM in test [4] (read-out: Ki); 2000 nM in test [4] (read-out: pKi (converted)); 1100 nM in [5] (read-out: Ki). For the same molecule, the Ki in test [5] (read-out: pKi (converted)) is 1000 nM; in test [6], over 100 µM. Moreover, the IC50 in test [7] (read-out: IC50) was 4.1 µM; in test [7] (read-out: pIC50 (converted)), 4.07 µM; in test [8] (read-out: IC50) it was 18 µM; in [8] (read-out: pIC50 (converted)), 15.8 µM; in [9], over 100 µM; in the test “cells” (read-out: IC50) it was over 100 µM. For the same molecule, the IC50 (in the test “cells” (read-out: pIC50 (converted)); in [10]) was over 100 µM in each case. Besides, the pIC50 in [9] and in test [10] was under 4 each time.

Consider `COc1ccc(C[N+]23CC[C@@H]4[C@@H]5/C(=C\N6c7ccccc7[C@@]78CC[N+]9(Cc%10ccc(OC)c(OC)c%10)CC%10=CCO[C@H]([C@@H]([C@H]67)[C@H]%10C[C@@H]89)N5c5ccccc5)[C@@H](C[C@@H]42)/C(=C\CO)C3)cc1OC.[Cl-].[Cl-]` (stereo not given in full), for which the pKi in test [1], in test [2] and in [3] was under 4 in each case. For the same molecule, the Ki in test [1] is over 100 µM; in test [2] it was over 100 µM; in [3], over 100 µM; in test [4] (read-out: Ki) it was 270 nM; in test [4] (read-out: pKi (converted)), 251 nM; in [5] (read-out: Ki) it was 200 nM. The Ki in [5] (read-out: pKi (converted)) is 200 nM; in test [6], 100 µM. Besides, the IC50 was 2.6 µM in test [7] (read-out: IC50); 2.63 µM in test [7] (read-out: pIC50 (converted)); 100 µM in test [8] (read-out: IC50); 31.6 µM in test [8] (read-out: pIC50 (converted)); 30 µM in test [9]; over 100 µM in “cells” (read-out: IC50). Moreover, the IC50 (in “cells” (read-out: pIC50 (converted)); in [10]) was over 100 µM in each case. For the same molecule, in test [10], the pIC50 is on record as under 4.

With `C1=C2C[N+]3(Cc4ccccc4)CC[C@@H]4[C@@H]5[C@H]([C@@H](OC1)N1c6ccccc6[C@@]67CC[N+]8(Cc9ccccc9)CC9=CCO[C@H]([C@@H]([C@H]16)[C@H]9C[C@@H]78)N5c1ccccc1)[C@H]2C[C@@H]43.[Br-].[Br-]` (stereo not given in full), the pKi in test [1], in test [2] and in [3] was under 4 each time. Besides, the Ki in [1] is over 100 µM; in test [2], over 100 µM; in [3], over 100 µM; in [4] (read-out: Ki), 200 nM; in test [4] (read-out: pKi (converted)), 200 nM; in test [5] (read-out: Ki), 250 nM. Moreover, the values for the Ki in test [5] (read-out: pKi (converted)) and in [6] were 251 nM and 100 µM, respectively. For the same molecule, the IC50 was 4.5 µM in [7] (read-out: IC50); 4.47 µM in test [7] (read-out: pIC50 (converted)); over 100 µM in test [8] (read-out: IC50); 100 µM in test [9]; over 100 µM in “cells” (read-out: IC50); over 100 µM in the test “cells” (read-out: pIC50 (converted)). In test [10], this molecule showed an IC50 of over 100 µM. Moreover, the negative-log IC50 (pIC50) in test [8] and in [10] was under 4 throughout.

As for `C[N+]12CCC34c5ccccc5N5/C=C6/[C@H]7C[C@H]8[C@@]9(CC[N+]8(C)C/C7=C/CO)c7ccccc7N(/C=C(/[C@@H](C[C@@H]31)/C(=C\CO)C2)[C@H]54)[C@@H]69.[Cl-].[Cl-]` (stereo not given in full) [TOXIFERINE], the pKi in test [1], in [3] and in test [6] was under 4 throughout. Further, the Ki in test [1] is over 100 µM; in test [2], 30 µM; in test [3] it was over 100 µM; in [4] (read-out: Ki) it was 1600 nM; in [4] (read-out: pKi (converted)), 1580 nM; in test [5] (read-out: Ki) it was 2600 nM. In addition, the Ki in test [5] (read-out: pKi (converted)) was 2510 nM; in [6] it was over 100 µM. The IC50 in test [7] (read-out: IC50) is 9.5 µM; in test [7] (read-out: pIC50 (converted)), 9.55 µM; in test [8] (read-out: IC50) it was 30 µM; in [9], over 100 µM; in the test “cells” (read-out: IC50) it was over 100 µM; in “cells” (read-out: pIC50 (converted)) it was over 100 µM. For the same molecule, the IC50 in test [10] was over 100 µM. For the same molecule, the pIC50 in test [9] and in test [10] was under 4 throughout.

On to `C=CC[N+](C)(C)Cc1c2n(c3ccccc13)Cc1c(C[N+](C)(C)CC=C)c3ccccc3n1C2.[Br-].[Br-]`, for which the pKi in [1], in test [2], in [3] and in [6] was under 4 each time. Also, the Ki in test [1] is over 100 µM; in test [2], over 100 µM; in test [3], over 100 µM; in test [4] (read-out: Ki), 4400 nM; in test [4] (read-out: pKi (converted)), 3980 nM; in [5] (read-out: Ki), 2900 nM. The Ki in test [5] (read-out: pKi (converted)) is 3160 nM; in test [6], over 100 µM. For the same molecule, the IC50 in [7] (read-out: IC50) is 30 µM; in test [7] (read-out: pIC50 (converted)), 100 µM; in test [8] (read-out: IC50), over 100 µM; in [9], over 100 µM; in “cells” (read-out: IC50), over 100 µM; in the test “cells” (read-out: pIC50 (converted)), over 100 µM. In [10], this molecule yielded an IC50 of over 100 µM. In addition, the pIC50 in test [8], in test [9] and in test [10] was under 4 throughout.
